Assay results from the supplement of paper PMC8960247.
Structures can show the parent of a compound that is named as a salt. ± gives the standard error.

What was measured:
621-102 (TSC2-deficient) [1] = experiment: relative viability vs DMSO (fraction); higher = less cytotoxic; details: serum: 0.1% FBS, 72 h
UMB1949 (TSC2-deficient) = experiment: as above; details: serum: 0.1% FBS, 72 h;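 also: renal angiomyolipoma cell lines screened in 384-well plates, viability normalized per plate to DMSO-treated cells, each plate carrying 50 nM rapamycin and 1 µM staurosporine controls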
621-102 (TSC2-deficient) [2] = experiment: relative viability vs DMSO; higher = less cytotoxic; details: serum: 10% FBS, 72 h
621-103 (TSC2-rescued) = experiment: as above; details: serum: 10% FBS, 72 h

COC1=CC(c2cc3ccccc3[nH]2)=N/C1=C\c1[nH]c(C)cc1C [Obatoclax Mesylate]
relative viability (621-102 (TSC2-deficient) [1]; 0.0128 nM): 1.24 | relative viability (621-102 (TSC2-deficient) [1]; 0.064 nM): 0.96 | relative viability (621-102 (TSC2-deficient) [1]; 0.32 nM): 1.05 | relative viability (621-102 (TSC2-deficient) [1]; 1.6 nM): 1.17 | relative viability (621-102 (TSC2-deficient) [1]; 8 nM): 1.06 | relative viability (621-102 (TSC2-deficient) [1]; 40 nM): 0.847 | relative viability (621-102 (TSC2-deficient) [1]; 200 nM): 0.128 | relative viability (621-102 (TSC2-deficient) [1]; 1000 nM): 0.00422 | relative viability (621-102 (TSC2-deficient) [1]; 5000 nM): 0.00238 | relative viability (UMB1949 (TSC2-deficient); 0.0128 nM): 1.1 | relative viability (UMB1949 (TSC2-deficient); 0.064 nM): 1.01 | relative viability (UMB1949 (TSC2-deficient); 0.32 nM): 1.06 | relative viability (UMB1949 (TSC2-deficient); 1.6 nM): 1.08 | relative viability (UMB1949 (TSC2-deficient); 8 nM): 1 | relative viability (UMB1949 (TSC2-deficient); 40 nM): 0.616 | relative viability (UMB1949 (TSC2-deficient); 200 nM): 0.0115 | relative viability (UMB1949 (TSC2-deficient); 1000 nM): 0.00837 | relative viability (UMB1949 (TSC2-deficient); 5000 nM): 0.0101 | relative viability (621-102 (TSC2-deficient) [2]; 0.0001 µM): 116.6 ± 0.46% | relative viability (621-102 (TSC2-deficient) [2]; 0.001 µM): 115 ± 5.2% | relative viability (621-102 (TSC2-deficient) [2]; 0.01 µM): 101.8 ± 0.93% | relative viability (621-102 (TSC2-deficient) [2]; 0.1 µM): 54 ± 2.3% | relative viability (621-102 (TSC2-deficient) [2]; 1 µM): 16.9 ± 0.25% | relative viability (621-102 (TSC2-deficient) [2]; 10 µM): 5.18 ± 0.8% | relative viability (621-103 (TSC2-rescued); 0.0001 µM): 102.9 ± 0.9% | relative viability (621-103 (TSC2-rescued); 0.001 µM): 99.7 ± 1.6% | relative viability (621-103 (TSC2-rescued); 0.01 µM): 96.8 ± 0.97% | relative viability (621-103 (TSC2-rescued); 0.1 µM): 68.9 ± 2% | relative viability (621-103 (TSC2-rescued); 1 µM): 28.8 ± 0.29% | relative viability (621-103 (TSC2-rescued); 10 µM): 5.57 ± 0.73%

Cc1cnc(NC(=O)Nc2cc(Br)c(C)cc2OC[C@@H]2CNCCO2)cn1
relative viability (621-102 (TSC2-deficient) [1]; 0.0128 nM): 0.474 | relative viability (621-102 (TSC2-deficient) [1]; 0.064 nM): 0.234 | relative viability (621-102 (TSC2-deficient) [1]; 0.32 nM): 0.185 | relative viability (621-102 (TSC2-deficient) [1]; 1.6 nM): 0.103 | relative viability (621-102 (TSC2-deficient) [1]; 8 nM): 0.0749 | relative viability (621-102 (TSC2-deficient) [1]; 40 nM): 0.0522 | relative viability (621-102 (TSC2-deficient) [1]; 200 nM): 0.0206 | relative viability (621-102 (TSC2-deficient) [1]; 1000 nM): 0.0139 | relative viability (621-102 (TSC2-deficient) [1]; 5000 nM): 0.0111 | relative viability (UMB1949 (TSC2-deficient); 0.0128 nM): 0.911 | relative viability (UMB1949 (TSC2-deficient); 0.064 nM): 0.655 | relative viability (UMB1949 (TSC2-deficient); 0.32 nM): 0.375 | relative viability (UMB1949 (TSC2-deficient); 1.6 nM): 0.158 | relative viability (UMB1949 (TSC2-deficient); 8 nM): 0.27 | relative viability (UMB1949 (TSC2-deficient); 40 nM): 0.00749 | relative viability (UMB1949 (TSC2-deficient); 200 nM): 0.0015 | relative viability (UMB1949 (TSC2-deficient); 1000 nM): 0.00258 | relative viability (UMB1949 (TSC2-deficient); 5000 nM): 0.00665 | relative viability (621-102 (TSC2-deficient) [2]; 0.0001 µM): 72.1 ± 3.7% | relative viability (621-102 (TSC2-deficient) [2]; 0.001 µM): 87.9 ± 6.2% | relative viability (621-102 (TSC2-deficient) [2]; 0.01 µM): 95 ± 2.5% | relative viability (621-102 (TSC2-deficient) [2]; 0.1 µM): 75.8 ± 2.3% | relative viability (621-102 (TSC2-deficient) [2]; 1 µM): 29.1 ± 0.86% | relative viability (621-102 (TSC2-deficient) [2]; 10 µM): 26.8 ± 0.86% | relative viability (621-103 (TSC2-rescued); 0.0001 µM): 109.5 ± 0.45% | relative viability (621-103 (TSC2-rescued); 0.001 µM): 103.7 ± 0.67% | relative viability (621-103 (TSC2-rescued); 0.01 µM): 102.8 ± 0.59% | relative viability (621-103 (TSC2-rescued); 0.1 µM): 109 ± 4.1% | relative viability (621-103 (TSC2-rescued); 1 µM): 84.09 ± 0.55% | relative viability (621-103 (TSC2-rescued); 10 µM): 33.7 ± 0.83%

CC(C)(C)c1cnc(CSc2cnc(NC(=O)C3CCNCC3)s2)o1
relative viability (621-102 (TSC2-deficient) [1]; 0.0128 nM): 1.06 | relative viability (621-102 (TSC2-deficient) [1]; 0.064 nM): 1.14 | relative viability (621-102 (TSC2-deficient) [1]; 0.32 nM): 1.02 | relative viability (621-102 (TSC2-deficient) [1]; 1.6 nM): 1.07 | relative viability (621-102 (TSC2-deficient) [1]; 8 nM): 0.654 | relative viability (621-102 (TSC2-deficient) [1]; 40 nM): 0.112 | relative viability (621-102 (TSC2-deficient) [1]; 200 nM): 0.00431 | relative viability (621-102 (TSC2-deficient) [1]; 1000 nM): 0.00292 | relative viability (621-102 (TSC2-deficient) [1]; 5000 nM): 0.00164 | relative viability (UMB1949 (TSC2-deficient); 0.0128 nM): 1.14 | relative viability (UMB1949 (TSC2-deficient); 0.064 nM): 1.05 | relative viability (UMB1949 (TSC2-deficient); 0.32 nM): 1.1 | relative viability (UMB1949 (TSC2-deficient); 1.6 nM): 1.12 | relative viability (UMB1949 (TSC2-deficient); 8 nM): 1.07 | relative viability (UMB1949 (TSC2-deficient); 40 nM): 0.771 | relative viability (UMB1949 (TSC2-deficient); 200 nM): 0.00698 | relative viability (UMB1949 (TSC2-deficient); 1000 nM): 0.00188 | relative viability (UMB1949 (TSC2-deficient); 5000 nM): 0.00107 | relative viability (621-102 (TSC2-deficient) [2]; 0.0001 µM): 102.3 ± 0.73% | relative viability (621-102 (TSC2-deficient) [2]; 0.001 µM): 107.6 ± 0.94% | relative viability (621-102 (TSC2-deficient) [2]; 0.01 µM): 102 ± 3.9% | relative viability (621-102 (TSC2-deficient) [2]; 0.1 µM): 51.1 ± 3.1% | relative viability (621-102 (TSC2-deficient) [2]; 1 µM): 15.7 ± 0.57% | relative viability (621-102 (TSC2-deficient) [2]; 10 µM): 8.84 ± 0.46% | relative viability (621-103 (TSC2-rescued); 0.0001 µM): 99.3 ± 1.4% | relative viability (621-103 (TSC2-rescued); 0.001 µM): 96.57 ± 0.27% | relative viability (621-103 (TSC2-rescued); 0.01 µM): 96.563 ± 0.042% | relative viability (621-103 (TSC2-rescued); 0.1 µM): 49.5 ± 4.3% | relative viability (621-103 (TSC2-rescued); 1 µM): 21.27 ± 0.21% | relative viability (621-103 (TSC2-rescued); 10 µM): 16.3 ± 1.4%

CCCCc1nc2cc(/C=C/C(=O)NO)ccc2n1CCN(CC)CC [SB939]
relative viability (621-102 (TSC2-deficient) [1]; 0.0128 nM): 1.27 | relative viability (621-102 (TSC2-deficient) [1]; 0.064 nM): 0.957 | relative viability (621-102 (TSC2-deficient) [1]; 0.32 nM): 0.868 | relative viability (621-102 (TSC2-deficient) [1]; 1.6 nM): 0.884 | relative viability (621-102 (TSC2-deficient) [1]; 8 nM): 0.789 | relative viability (621-102 (TSC2-deficient) [1]; 40 nM): 0.608 | relative viability (621-102 (TSC2-deficient) [1]; 200 nM): 0.351 | relative viability (621-102 (TSC2-deficient) [1]; 1000 nM): 0.121 | relative viability (621-102 (TSC2-deficient) [1]; 5000 nM): 0.00937 | relative viability (UMB1949 (TSC2-deficient); 0.0128 nM): 1.04 | relative viability (UMB1949 (TSC2-deficient); 0.064 nM): 1.11 | relative viability (UMB1949 (TSC2-deficient); 0.32 nM): 1.25 | relative viability (UMB1949 (TSC2-deficient); 1.6 nM): 1.22 | relative viability (UMB1949 (TSC2-deficient); 8 nM): 1.03 | relative viability (UMB1949 (TSC2-deficient); 40 nM): 0.31 | relative viability (UMB1949 (TSC2-deficient); 200 nM): 0.0114 | relative viability (UMB1949 (TSC2-deficient); 1000 nM): 0.00881 | relative viability (UMB1949 (TSC2-deficient); 5000 nM): 0.00358 | relative viability (621-102 (TSC2-deficient) [2]; 0.0001 µM): 106 ± 2.5% | relative viability (621-102 (TSC2-deficient) [2]; 0.001 µM): 116 ± 4.8% | relative viability (621-102 (TSC2-deficient) [2]; 0.01 µM): 108.59 ± 0.1% | relative viability (621-102 (TSC2-deficient) [2]; 0.1 µM): 96.3 ± 2% | relative viability (621-102 (TSC2-deficient) [2]; 1 µM): 71.42 ± 0.65% | relative viability (621-102 (TSC2-deficient) [2]; 10 µM): 35.9 ± 0.61% | relative viability (621-103 (TSC2-rescued); 0.0001 µM): 98.4 ± 1.2% | relative viability (621-103 (TSC2-rescued); 0.001 µM): 97.63 ± 0.65% | relative viability (621-103 (TSC2-rescued); 0.01 µM): 96.6 ± 2.1% | relative viability (621-103 (TSC2-rescued); 0.1 µM): 96.7 ± 1.1% | relative viability (621-103 (TSC2-rescued); 1 µM): 46.1 ± 2.5% | relative viability (621-103 (TSC2-rescued); 10 µM): 2.74 ± 0.067%
